These results are taken from US20230365592A1 (Agios Pharmaceuticals, Inc., priority 2022, published 2023).

Each structure is given as a SMILES string. Some results are limits rather than exact numbers.

For this test, the target named is T1, human PAH with the R408W mutation (Homo sapiens, UniProt P00439, R408W).
T1 construct: expressed in transfected cells
T1 sequence (P00439 1-452 R408W): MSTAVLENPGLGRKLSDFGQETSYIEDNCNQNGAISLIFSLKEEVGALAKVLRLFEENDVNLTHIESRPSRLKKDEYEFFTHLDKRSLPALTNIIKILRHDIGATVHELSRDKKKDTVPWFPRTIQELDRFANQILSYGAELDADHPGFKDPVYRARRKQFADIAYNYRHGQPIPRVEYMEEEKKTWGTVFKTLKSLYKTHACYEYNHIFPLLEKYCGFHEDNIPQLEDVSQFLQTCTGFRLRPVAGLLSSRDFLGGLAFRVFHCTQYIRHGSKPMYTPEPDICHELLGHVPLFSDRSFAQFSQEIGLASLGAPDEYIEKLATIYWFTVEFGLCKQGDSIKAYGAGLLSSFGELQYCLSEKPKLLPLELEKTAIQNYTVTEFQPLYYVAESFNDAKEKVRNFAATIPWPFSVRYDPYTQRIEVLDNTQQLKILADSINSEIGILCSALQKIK
The test is described as follows: Cell Based Phenylalanine Flux Assay.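 Note: after compound treatment, cells received sepiapterin plus isotope-labelled Phenylalanine for 4 hours, then labelled Tyrosine in the medium was quantified, 10-point 2-fold dilution series run in duplicate.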 As to conditions: A375 cells expressing human R408W PAH; 24 hrs compound incubation; 13C-Tyrosine by LC-MS; average where tested multiple times; read-out: AC50.

In general, AC50 refers to the midpoint of the concentration-response curve, whichever way the signal moves. On to `CC(C)(F)c1nc(C(F)F)c(C(=O)N2CCc3[nH]cnc3[C@@H]2c2cc3c(Cl)cccn3n2)o1` [Example 1229, (R)-(4-(4-chloropyrazolo[1,5-a]pyridin-2-yl)-6,7-dihydro-1H-imidazo[4,5-c]pyridin-5(4H)-yl)(4-(difluoromethyl)-2-(2-fluoropropan-2-yl)oxazol-5-yl)methanone], for which the AC50 was 0.5 to 1 µM. On to `Cc1cccc2cc([C@@H]3c4nc[nH]c4CCN3C(=O)c3oc(C(C)(C)F)nc3C(F)F)nn12` [Example 1230, (S)-(4-(difluoromethyl)-2-(2-fluoropropan-2-yl)oxazol-5-yl)(4-(7-methylpyrazolo[1,5-a]pyridin-2-yl)-6,7-dihydro-1H-imidazo[4,5-c]pyridin-5(4H)-yl)methanone], for which the AC50 is less than 0.5 µM. Take `Cc1cccc2cc([C@H]3c4nc[nH]c4CCN3C(=O)c3oc(C(C)(C)F)nc3C(F)F)nn12` [Example 1231, (R)-(4-(difluoromethyl)-2-(2-fluoropropan-2-yl)oxazol-5-yl)(4-(7-methylpyrazolo[1,5-a]pyridin-2-yl)-6,7-dihydro-1H-imidazo[4,5-c]pyridin-5(4H)-yl)methanone]: the concentration at half-maximal activity (AC50) lay within 1 to 5 µM. The same measure for `CC(C)(F)c1nc(C(F)F)c(C(=O)N2CCc3[nH]cnc3[C@H]2c2cc3cccc(Cl)n3n2)o1` [Example 1232, (S)-(4-(7-chloropyrazolo[1,5-a]pyridin-2-yl)-6,7-dihydro-1H-imidazo[4,5-c]pyridin-5(4H)-yl)(4-(difluoromethyl)-2-(2-fluoropropan-2-yl)oxazol-5-yl)methanone]: less than 0.5 µM. Regarding `CC(C)(F)c1nc(C(F)F)c(C(=O)N2CCc3[nH]cnc3[C@@H]2c2cc3cccc(Cl)n3n2)o1` [Example 1233, (R)-(4-(7-chloropyrazolo[1,5-a]pyridin-2-yl)-6,7-dihydro-1H-imidazo[4,5-c]pyridin-5(4H)-yl)(4-(difluoromethyl)-2-(2-fluoropropan-2-yl)oxazol-5-yl)methanone], the AC50 fell in the range of 1 to 5 µM.

With `O=C(c1oc(C2(O)CC2)nc1C(F)F)N1CCc2[nH]cnc2[C@H]1c1cc2c(F)cccn2n1` [Example 1234, (S)-(4-(difluoromethyl)-2-(1-hydroxycyclopropyl)oxazol-5-yl)(4-(4-fluoropyrazolo[1,5-a]pyridin-2-yl)-6,7-dihydro-1H-imidazo[4,5-c]pyridin-5(4H)-yl)methanone], the AC50 was less than 0.5 µM.

For the compound `O=C(c1oc(C2(O)CC2)nc1C(F)F)N1CCc2[nH]cnc2[C@@H]1c1cc2c(F)cccn2n1` [Example 1235, (R)-(4-(difluoromethyl)-2-(1-hydroxycyclopropyl)oxazol-5-yl)(4-(4-fluoropyrazolo[1,5-a]pyridin-2-yl)-6,7-dihydro-1H-imidazo[4,5-c]pyridin-5(4H)-yl)methanone], the AC50 was 1 to 5 µM. For the compound `O=C(c1oc(C2(O)CC2)nc1C(F)F)N1CCc2[nH]cnc2[C@H]1c1cc2cccc(Cl)n2n1` [Example 1236, (S)-(4-(7-chloropyrazolo[1,5-a]pyridin-2-yl)-6,7-dihydro-1H-imidazo[4,5-c]pyridin-5(4H)-yl)(4-(difluoromethyl)-2-(1-hydroxycyclopropyl)oxazol-5-yl)methanone], the AC50 was less than 0.5 µM. In the case of `O=C(c1oc(C2(O)CC2)nc1C(F)F)N1CCc2[nH]cnc2[C@@H]1c1cc2cccc(Cl)n2n1` [Example 1237, (R)-(4-(7-chloropyrazolo[1,5-a]pyridin-2-yl)-6,7-dihydro-1H-imidazo[4,5-c]pyridin-5(4H)-yl)(4-(difluoromethyl)-2-(1-hydroxycyclopropyl)oxazol-5-yl)methanone], the AC50 fell in the range of 1 to 5 µM. Consider `CC(C)(O)c1nc(C(F)F)c(C(=O)N2CCc3[nH]cnc3[C@H]2c2cc3cccc(F)n3n2)o1` [Example 1238, (S)-(4-(difluoromethyl)-2-(2-hydroxypropan-2-yl)oxazol-5-yl)(4-(7-fluoropyrazolo[1,5-a]pyridin-2-yl)-6,7-dihydro-1H-imidazo[4,5-c]pyridin-5(4H)-yl)methanone], for which the concentration at half-maximal activity (AC50) was less than 0.5 µM. In the case of `CC(C)(O)c1nc(C(F)F)c(C(=O)N2CCc3[nH]cnc3[C@@H]2c2cc3cccc(F)n3n2)o1` [Example 1239, (R)-(4-(difluoromethyl)-2-(2-hydroxypropan-2-yl)oxazol-5-yl)(4-(7-fluoropyrazolo[1,5-a]pyridin-2-yl)-6,7-dihydro-1H-imidazo[4,5-c]pyridin-5(4H)-yl)methanone] it was 1 to 5 µM. For the compound `CCOc1cccc2cc([C@@H]3c4nc[nH]c4CCN3C(=O)c3ocnc3C(F)F)nn12` [Example 1240, (S)-(4-(difluoromethyl)oxazol-5-yl)(4-(7-ethoxypyrazolo[1,5-a]pyridin-2-yl)-6,7-dihydro-1H-imidazo[4,5-c]pyridin-5(4H)-yl)methanone], the AC50 was less than 0.5 µM. On to `CCOc1cccc2cc([C@H]3c4nc[nH]c4CCN3C(=O)c3ocnc3C(F)F)nn12` [Example 1241, (R)-(4-(difluoromethyl)oxazol-5-yl)(4-(7-ethoxypyrazolo[1,5-a]pyridin-2-yl)-6,7-dihydro-1H-imidazo[4,5-c]pyridin-5(4H)-yl)methanone], for which the concentration at half-maximal activity (AC50) is 1 to 5 µM. In the case of `CCOc1cccc2cc([C@@H]3c4nc[nH]c4CCN3C(=O)c3nnc(C(C)(C)F)o3)nn12` [Example 1242, (S)-(4-(7-ethoxypyrazolo[1,5-a]pyridin-2-yl)-6,7-dihydro-1H-imidazo[4,5-c]pyridin-5(4H)-yl)(5-(2-fluoropropan-2-yl)-1,3,4-oxadiazol-2-yl)methanone], the AC50 was in the range of 1 to 5 µM. As for `CCOc1cccc2cc([C@H]3c4nc[nH]c4CCN3C(=O)c3nnc(C(C)(C)F)o3)nn12` [Example 1243, (R)-(4-(7-ethoxypyrazolo[1,5-a]pyridin-2-yl)-6,7-dihydro-1H-imidazo[4,5-c]pyridin-5(4H)-yl)(5-(2-fluoropropan-2-yl)-1,3,4-oxadiazol-2-yl)methanone], the AC50 fell in the range of 1 to 5 µM. For `CCOc1cccc2cc([C@H]3c4nc[nH]c4CCN3C(=O)c3oc(C(C)(C)O)nc3C(F)F)nn12` [Example 1244, (R)-(4-(difluoromethyl)-2-(2-hydroxypropan-2-yl)oxazol-5-yl)(4-(7-ethoxypyrazolo[1,5-a]pyridin-2-yl)-6,7-dihydro-1H-imidazo[4,5-c]pyridin-5(4H)-yl)methanone], the concentration at half-maximal activity (AC50) was in the range of 1 to 5 µM.

Take `CC(C)(C)c1nnc(C(=O)N2CCc3[nH]cnc3[C@@H]2c2cc3cccc(F)n3n2)o1` [Example 1248, (R)-(5-(tert-butyl)-1,3,4-oxadiazol-2-yl)(4-(7-fluoropyrazolo[1,5-a]pyridin-2-yl)-6,7-dihydro-1H-imidazo[4,5-c]pyridin-5(4H)-yl)methanone]: the AC50 was 1 to 5 µM.

With `CC(C)(C)c1nnc(C(=O)N2CCc3[nH]cnc3[C@H]2c2cc3cccc(F)n3n2)o1` [Example 1249, (S)-(5-(tert-butyl)-1,3,4-oxadiazol-2-yl)(4-(7-fluoropyrazolo[1,5-a]pyridin-2-yl)-6,7-dihydro-1H-imidazo[4,5-c]pyridin-5(4H)-yl)methanone], the AC50 was less than 0.5 µM.

With `Cc1nc(C(C)(C)F)oc1C(=O)N1CCc2[nH]cnc2[C@H]1c1cc2ccccn2n1` [Example 1250, (S)-(2-(2-fluoropropan-2-yl)-4-methyloxazol-5-yl)(4-(pyrazolo[1,5-a]pyridin-2-yl)-6,7-dihydro-1H-imidazo[4,5-c]pyridin-5(4H)-yl)methanone], the AC50 is less than 0.5 µM.
